The text below walks through data of patent publication US20070020241A1, “Use of photosensitisation” (priority 2003, published 2007).

The test system of test [1] is Streptococcus pyogenes ATCC 12202. Kind of test: Lethal photosensitization of Streptococcus pyogenes using SnCe6 and laser light. The test is classed as cell-based. The protocol:
(§1) streptococcus pyogenes ATCC 12202 was grown in Brain Heart Infusion broth at 37° C. in an atmosphere consisting of 5% CO2 in air. The cells were harvested by centrifugation and re-suspended in phosphate buffered saline (PBS) and diluted to 1×10^7 cfu/ml in PBS. 20 μl samples of the diluted bacterial suspension were then placed into wells of a 96-well plate, together with a magnetic stirrer bar. 100 μl of different concentrations (1-50 μg/ml) of the SnCe6 in PBS was added to the bacterial suspensions. Controls were performed with 100 μl PBS added to the bacteria and either irradiated (L+S−) or kept in the dark (L−S−). The experiment was carried out in duplicate.
After incubation, the contents of some of the wells were exposed to light from the 35 mW Helium/Neon laser emitting light with a wavelength of 633nm for 10 min, with stirring, corresponding to an energy density of 42 J/cm^2. Aluminium foil was placed in the surrounding wells to allow any escaping laser light to be reflected back into the target well. Control wells were not irradiated with laser light.
After exposure to the laser light, 100 μl samples were immediately taken from each well and serially diluted, from 10^−1 to 10^−5, in 1 ml TSY in 1.5 ml Eppendorf tubes. Duplicate 50 μl aliquots of each dilution were then spread out on half a CBA plate. The plates were placed in a 37° C. incubator for up to 48 h and the resulting colonies were counted to determine the number of surviving organisms.

The test system of test [2] is Propionibacterium acnes ATCC 29399. The test is described as follows: Lethal photosensitization of Propionibacterium acnes using SnCe6 and laser light. It is filed as cell-based. The method, then: as §1, with “Propionibacterium acnes ATCC 29399” for “streptococcus pyogenes ATCC 12202”, “acnes ATCC 29399 was grown” for “pyogenes ATCC 12202 was grown”, “grown in pre-reduced Brain Heart” for “grown in Brain Heart”, “in an anaerobic atmosphere. The cells” for “in an atmosphere consisting of 5% CO2 in air. The cells”, “diluted to 1×10^8 cfu/ml in” for “diluted to 1×10^7 cfu/ml in”
After incubation, the contents of some of the wells were exposed to light from the 35 mW Helium/Neon laser emitting light with a wavelength of 633 nm for 10 min, with stirring, corresponding to an energy density of 42 J/cm^2. Aluminium foil was placed in the surrounding wells to allow any escaping laser light to be reflected back into the target well. Control wells were not irradiated with laser light.
After exposure to the laser light, 100 μl samples were immediately taken from each well and serially diluted, from 10^−1 to 10^−5, in 1 ml of pre-reduced TSY in 1.5 ml Eppendorf tubes. Duplicate 50 μl aliquots of each dilution were then spread out on half a CBA plate. The plates were incubated anaerobically at 37° C. and the resulting colonies were counted to determine the number of surviving organisms.

Test [3] relates to S. aureus 8325-4. Kind of test: Targeted photodynamic therapy using Φ11-SnCe6 conjugates and a laser light source. It is filed as cell-based, Staphylococcus aureus. The note with it: 1.15 μg ml^−1 SnCe6, 633 nm 35 mW HeNe laser 5 minutes (21 J/cm^2). The protocol:
Bacteriophage Φ11 was propagated and precipitated as described above for phage 75, except that S aureus strain 8325-4 was used as the propagating strain. Tin chlorin e6 (SnCe6) was conjugated onto Staphylococcus phage Φ11 using the method described above, achieving bound concentrations of 2.3 and 3.5 μg ml^−1 SnCe6 with the phage Φ11 at 4.7×10^7 pfu.ml^−1. […] The final concentration of conjugated SnCe6 was 1.15 μg ml^−1.
The light source was a 35 mW Helium/Neon laser and irradiation (when used) was for 5 minutes in the case of FIGS. 3 and 4, and for 10 minutes in the case of FIG. 5.

The next test deals with EMRSA-16. Kind of test: Lethal photosensitisation using phage 75-SnCe6 conjugate and a white light source. The test is classed as cell-based, Staphylococcus aureus. The note with it: for % kill (L+S+): vs PBS in the dark. The source says: (§2) Bacterial strains: S. aureus 8325-4 • EMRSA-16
(§3) Light source: KL200 (Schott). This is a 20-watt halogen cold light source. The light guide attached to it is a flexible optic fibre bundle which is directed onto a 96 well plate at a distance of 5 cm. A square of 4-wells is placed at the centre of the light source.
(§4) Approx light intensity=44,000 lux or 470 μW/nm
(§5) Phage 75 was conjugated to SnCe6 as described above. Phages were used at a concentration of 1×10^7 pfu/ml.
(§6) Overnight cultures of S. aureus grown in nutrient broth were centrifuged, resuspended in PBS and adjusted to an OD of 0.05 at 600 nm (approximately 4×10^7 cfu/ml)
(§7) 50 μl of bacterial culture was aliquoted into a 96-well plate and 50 μl of the one of the following solutions added to the wells: • 1) 3.5 μg/ml SnCe6-phage 75 (final concentration 1.75 μg/ml, 1×10^6 pfu/well) in PBS • 2) 1.75 μg/ml SnCe6-phage 75 (final concentration 0.875 μg/ml, 5×10^5 pfu/well) in PBS • 3) 3.5 μg/ml SnCe6 in PBS (final concentration 1.75 μg/ml) • 4) 1.75 μg/ml SnCe6 in PBS (final concentration 0.875 μg/ml) • 5) PBS • 6) Phage 75 at a concentration of 5×10^5 or 1×10^6 pfu/well in PBS
(§8) Wells were either exposed to white light (4 wells at a time) or wrapped in tin foil and stored in the dark.
(§9) After various exposure times an aliquot was taken from each well, serially diluted and spread onto Columbia blood agar. Agar plates were incubated overnight at 37° C. and counted the next day.

Test [4] concerns S. aureus 8325-4. The description is as above. The test is classed as cell-based, Staphylococcus aureus. The note with it: for % kill (L+S+): vs PBS in the dark.
Text: as §2, §3, §4, §5, §6, §7, §8, §9

The subject of a further test is 16 strains of EMRSA. The note with it: red light, higher light doses; cited from earlier work.
[5] abbreviates: 633 nm laser 10 min, 42 J/cm^2, 1-50 μg/ml.
Setting [6] is: dark, increasing concentrations (1-50 μg/ml).
The mark [7] stands for this setting: photosensitiser 50 μg/ml, 633 nm laser 10 min, 42 J/cm^2.
The mark [8] stands for this setting: white light 10 min, final photosensitiser 0.875 μg/ml.
[9] abbreviates: white light 10 min, final photosensitiser 1.75 μg/ml.
[10] abbreviates: white light 20 min, final photosensitiser 1.75 μg/ml.
The mark [11] stands for this setting: without exposure to white light.

Regarding `C=CC1=C(C)C2=CC3=NC(=C(CC(=O)[O-])C4=NC(=C(C)C4=C([O-])[O-])C=c4[n-]c(c(C)c4CC)=CC1=N2)C(CCC(=O)[O-])C3C.[H+].[Sn+4]` (stereo not shown) [SnCe6, tin (IV) chlorin e6], the “effect on the viable count, irradiation” value in test [1] (setting [5]) and in test [2] (setting [5]) was “concentration-dependent decrease in the viable count” throughout. Moreover, the “effect on the viable count, incubation in the dark” value in test [1] (setting [6]) and in test [2] (setting [6]) was “no significant effect” in each case. Besides, the “% kill of the organism” value stood at 99.9997% in test [1] (setting [7]) and 100% in test [2] (setting [7]). Besides, in the test with S. aureus 8325-4 [3], the “% kill (compared to control counts in phosphate buffered saline)” value is “did not achieve any kill”. The “% kill (L+S+)” value in the test with EMRSA-16 (setting [8]) came to 0%; with EMRSA-16 (setting [9]), 0%; in the test with EMRSA-16 (setting [10]), 99.78%; in the test with S. aureus 8325-4 [4] (setting [8]), 45.3%; with S. aureus 8325-4 [4] (setting [9]), 97.8%; in the test with S. aureus 8325-4 [4] (setting [10]), 97.9%. In addition, the “bacterial counts of controls vs unirradiated suspension without photosensitiser” value with EMRSA-16 (setting [11]) and with S. aureus 8325-4 [4] (setting [11]) was “not significantly different” each time.
As for “aluminium disulphonated phthalocyanine [AlPcS2]”, the “% killing” value in the test on 16 strains of EMRSA is recorded as 100%.
